Measured values: ChEMBL document CHEMBL5131471, “Design, synthesis and mechanism studies of novel dual PARP1/BRD4 inhibitors against pancreatic cancer” (Eur J Med Chem, 2022)
Active and inactive are the calls of the source. No cut-off for these calls is given here.

Legend:
[1] = Toxicity in nude mouse xenografted with human SW1990 cells assessed as spleen damage at 45 mg/kg, ip administered for 28 days by H and E staining based fluorescence microscopic analysis; type: organism-based; conditions: in vivo, 672 h, time 28 day
[2] = system: Mus musculus; assay: Upregulation of E2F2 expression in nude mouse xenografted with human SW1990 cells at 45 mg/kg, ip measured after 4 days by Q-PCR analysis; type: functional, organism-based; conditions: time 4.0 day
[3] = system: Mus musculus; assay: Upregulation of CDK6 expression in nude mouse xenografted with human SW1990 cells at 45 mg/kg, ip measured after 4 days by Q-PCR analysis; type: functional, organism-based; conditions: time 4.0 day
[4] = system: Mus musculus; assay: Upregulation of CDK1 expression in nude mouse xenografted with human SW1990 cells at 45 mg/kg, ip measured after 4 days by Western blot analysis; type: functional, organism-based; conditions: time 4.0 day
[5] = system: SW1990; assay: Effect on c-Myc gene expression in human SW1990 cells at 6 uM by Q-PCR analysis; type: functional, cell-based
[6] = system: SW1990; assay: Effect on CDK1 gene expression in human SW1990 cells at 6 uM by Q-PCR analysis; type: functional, cell-based
[7] = system: SW1990; assay: Effect on FOXM1 gene expression in human SW1990 cells at 6 uM by Q-PCR analysis; type: functional, cell-based
[8] = system: SW1990; assay: Upregulation of CCNB1 expression in human SW1990 cells at 6 uM measured after 4 days by Western blot analysis; type: functional, cell-based; conditions: time 4.0 day
[9] = system: SW1990; assay: Upregulation of CCND1 expression in human SW1990 cells at 6 uM measured after 4 days by Western blot analysis; type: functional, cell-based; conditions: time 4.0 day
[10] = system: SW1990; assay: Induction of BRCA2 accumulation in nucleus of human SW1990 cells at 6 uM measured after 4 days by Western blot analysis; type: functional, cell-based; conditions: time 4.0 day
[11] = system: SW1990; assay: Upregulation of BRD4 expression in human SW1990 cells at 6 uM measured after 4 days by Western blot analysis; type: functional, cell-based; conditions: time 4.0 day
[12] = system: SW1990; assay: Induction of cell cycle arrest in human SW1990 cells assessed as accumulation of cells at G0/G1 phase at 4 uM incubated for 4 days by propidium iodide staining based flow cytometry (reference value: 64.79%); type: functional; conditions: time 4 day
[13] = system: SW1990; assay: Induction of cell cycle arrest in human SW1990 cells assessed as accumulation of cells at G2/M phase at 4 uM incubated for 4 days by propidium iodide staining based flow cytometry (reference value: 5.89%); type: functional; conditions: time 4 day
[14] = system: SW1990; assay: Induction of DNA damage in human SW1990 cells assessed as increase in gammaH2AX expression at 1 uM incubated for 4 days in presence of Olaparib by DAPI staining based laser confocal microscopic analysis; type: functional, cell-based; conditions: time 4.0 day
[15] = system: SW1990; assay: Effect on BRCA2 gene expression in human SW1990 cells at 4 uM by Q-PCR analysis; type: functional, cell-based
[16] = system: SW1990; assay: Effect on TOPBP1 gene expression in human SW1990 cells at 4 uM by Q-PCR analysis; type: functional, cell-based
[17] = system: SW1990; assay: Effect on CCNB1 gene expression in human SW1990 cells at 1 uM in presence of Olaparib by Q-PCR analysis; type: functional, cell-based
[18] = system: SW1990; assay: Effect on CCND1 gene expression in human SW1990 cells at 1 uM in presence of Olaparib by Q-PCR analysis; type: functional, cell-based
[19] = system: SW1990; assay: Effect on TOPBP1 gene expression in human SW1990 cells at 1 uM in presence of Olaparib by Q-PCR analysis; type: functional, cell-based
[20] = system: SW1990; assay: Effect on ALDH1A1 gene expression in human SW1990 cells at 1 uM in presence of Olaparib by Q-PCR analysis; type: functional, cell-based
[21] = system: Mus musculus; assay: Inhibition of homologous recombinant repair in nude mouse xenografted with human SW1990 cells assessed as reversal of olaparib-induced BRCA1 expression at 30 mg/kg, ip measured after 4 days by Western blot analysis; type: functional, organism-based; conditions: time 4.0 day
[22] = system: SW1990; assay: Antitumor activity against human SW1990 cells xenografted in nude mouse assessed as reduction in tumor size at 30 mg/kg, ip administered for 28 days and measured every 3 days by vernier caliper method; type: functional, organism-based; conditions: time 28.0 day
[23] = system: Mus musculus; assay: Inhibition of PARP1 expression in nude mouse xenografted with human […] cells at 30 mg/kg, ip administered for 28 days by DAPI staining based laser confocal microscopic analysis; type: functional, organism-based; conditions: time 28.0 day
[24] = system: SW1990; assay: Induction of apoptosis in human SW1990 cells assessed as necrotic cells at 2 uM measured after 4 days by Annexin V-FITC and propidium iodide staining based flow cytometry (reference value: 2.45%); type: functional; conditions: time 4 day
[25] = system: SW1990; assay: Induction of apoptosis in human SW1990 cells assessed as late apoptotic cells at 2 uM measured after 4 days by Annexin V-FITC and propidium iodide staining based flow cytometry (reference value: 7.23%); type: functional; conditions: time 4 day
[26] = system: SW1990; assay: Induction of cell cycle arrest in human SW1990 cells assessed as accumulation of cells at G0/G1 phase at 2 uM incubated for 4 days by propidium iodide staining based flow cytometry (reference value: 64.79%); type: functional; conditions: time 4 day
[27] = system: SW1990; assay: Induction of DNA damage in human SW1990 cells assessed as increase in gammaH2AX expression at 1 to 2 uM incubated for 4 days by DAPI staining based laser confocal microscopic analysis; type: functional, cell-based; conditions: dose 1-2 µM, time 4.0 day
[28] = system: SW1990; assay: Inhibition of homologous recombinant repair in human SW1990 cells assessed as reversal of Olaparib-induced FOXM1 expression at 1 to 2 uM after 4 days by Western blot analysis; type: functional, cell-based; conditions: dose 1-2 µM, time 4.0 day
[29] = system: SW1990; assay: Inhibition of homologous recombinant repair in human SW1990 cells assessed as reversal of Olaparib-induced MDC1 expression at 1 to 2 uM after 4 days by Western blot analysis; type: functional, cell-based; conditions: dose 1-2 µM, time 4.0 day
[30] = system: Mus musculus; assay: Inhibition of homologous recombinant repair in nude mouse xenografted with human SW1990 cells assessed as reversal of olaparib-induced BRCA2 expression at 30 mg/kg, ip after 4 days by Western blot analysis; type: functional, organism-based; conditions: time 4.0 day
[31] = system: Mus musculus; assay: Inhibition of homologous recombinant repair in nude mouse xenografted with human SW1990 cells assessed as reversal of olaparib-induced Rad51 expression at 30 mg/kg, ip after 4 days by Western blot analysis; type: functional, organism-based; conditions: time 4.0 day
[32] = system: Mus musculus; assay: Inhibition of homologous recombinant repair in nude mouse xenografted with human SW1990 cells assessed as reversal of olaparib-induced c-Myc expression at 30 mg/kg, ip measured after 4 days by Western blot analysis; type: functional, organism-based; conditions: time 4.0 day
[33] = system: Mus musculus; assay: Induction of DNA damage in human SW1990 cells xenografted in nude mouse assessed as increase in gammaH2AX at 30 mg/kg, ip by immunohistochemical analysis; type: functional, organism-based
[34] = system: SW1990; assay: Effect on CDC25B gene expression in human SW1990 cells at 1 to 2 uM by Q-PCR analysis; type: functional, cell-based; conditions: dose 1-2 µM
[35] = system: SW1990; assay: Effect on CCNB1 gene expression in human SW1990 cells at 1 to 2 uM by Q-PCR analysis; type: functional, cell-based; conditions: dose 1-2 µM
[36] = system: SW1990; assay: Effect on CCND1 gene expression in human SW1990 cells at 1 to 2 uM by Q-PCR analysis; type: functional, cell-based; conditions: dose 1-2 µM
[37] = system: SW1990; assay: Inhibition of E2F2 protein expression in human SW1990 cells at 1 to 2 uM measured after 4 days by Western blot analysis; type: functional, cell-based; conditions: dose 1-2 µM, time 4.0 day
[38] = system: Mus musculus; assay: Induction of DNA damage in nude mouse xenografted with human SW1990 cells assessed as increase in gammaH2AX expression at 30 mg/kg, ip incubated for 4 days by DAPI staining based laser confocal microscopic analysis; type: functional, organism-based; conditions: time 4.0 day

Question: Which results are given for O=C(c1cc(Cc2n[nH]c(=O)c3ccccc23)ccc1F)N1CCN(C(=O)C2CC2)CC1 [OLAPARIB]?
Answer: Activity [1]: Non-Toxic; Activity [2]: Active; Activity [3]: Active; Activity [4]: Active; Activity [5]: Active; Activity [6]: Active; Activity [7]: Active; Activity [8]: Active; Activity [9]: Active; Activity [10]: Active; Activity [11]: Active

Question: For Cc1sc2c(c1C)C(c1ccc(Cl)cc1)=N[C@@H](CC(=O)OC(C)(C)C)c1nnc(C)n1-2, which Activity [12] is on record?
Answer: Its Activity is 75.06%.

Question: And the Activity [13]?
Answer: The Activity was 5.51%.

Question: And the Activity [14]?
Answer: The Activity was “Active”.

Question: And the Activity [15]?
Answer: The Activity was “Active”.

Question: What about the Activity [16] of the same molecule?
Answer: The Activity was “Active”.

Question: And the Activity [17]?
Answer: Its Activity is “Active”.

Question: And the Activity [18]?
Answer: Its Activity is “Active”.

Question: And the Activity [19]?
Answer: Its Activity is “Active”.

Question: What about the Activity [20] of the same molecule?
Answer: Its Activity is “Active”.

Question: For Cc1noc(C)c1-c1ccc2c(c1)C(c1ccccc1)N(Cc1nc3c(C(N)=O)cccc3[nH]1)C(=O)N2C (stereo not drawn), which inhibition [21] is on record?
Answer: Its inhibition is “Active”.

Question: And the Activity [22]?
Answer: The Activity was “Active”.

Question: And the inhibition [23]?
Answer: The inhibition was “Active”.

Question: What about the Activity [24] of the same molecule?
Answer: Its Activity is 3.52%.

Question: What about the Activity [25] of the same molecule?
Answer: Its Activity is 39.5%.

Question: And the Activity [26]?
Answer: Its Activity is 78.17%.

Question: What about the Activity [27] of the same molecule?
Answer: The Activity was “Active”.

Question: What about the inhibition [28] of the same molecule?
Answer: Its inhibition is “Active”.

Question: And the inhibition [29]?
Answer: The inhibition was “Active”.

Question: And the inhibition [30]?
Answer: The inhibition was “Active”.

Question: What about the inhibition [31] of the same molecule?
Answer: Its inhibition is “Active”.

Question: And the inhibition [32]?
Answer: Its inhibition is “Active”.

Question: And the Activity [33]?
Answer: The Activity was “Active”.

Question: And the Activity [34]?
Answer: The Activity was “Active”.

Question: And the Activity [35]?
Answer: The Activity was “Active”.

Question: What about the Activity [36] of the same molecule?
Answer: The Activity was “Active”.

Question: And the inhibition [37]?
Answer: Its inhibition is “Active”.

Question: What about the Activity [38] of the same molecule?
Answer: The Activity was “Active”.
